Experimental data: paper PMC7044433, “Combining DNMT and HDAC6 inhibitors increases anti-tumor immune signaling and decreases tumor burden in ovarian cancer” (Scientific Reports, 2020)

Columns and labels:
[1] = test system: MHC class I, Hey human ovarian cancer cell line; assay: MHC class I cell surface expression by flow cytometry; type: cell-based; details: Day 7, flow cytometry MFI
Experimental: (§1) Cells were cultured in T75 dishes (Greiner, 658170) to form a monolayer at 80% confluency. Combination cells were treated with 500 nM 5-azacytidine (Sigma-Aldrich) once a day for 3 days or PBS once a day for 3 days. Cells were passaged on the fourth day and split into 2 flasks to be treated with Nexturastat (StarWise, LLC) or DMSO for vehicle control at the desired dose based on the cell line for the following 3 days. On the first day of Nexturastat treatment, one flask from each treatment group was stimulated with 250 ng/mL IFNγ (Peprotech, 300-02). For isogeneic ID8 murine cell lines, on the first day of HDACi treatment cell were treated with 250 ng/mL IFNγ (Peprotech, 315-05). On the seventh day, cell pellets were collected for Western Blot or flow cytometry analysis. For cycloheximide experiments, cells were treated on the seventh day of the experiment for 0, 4 or 8 hours with 10 μM cycloheximide (Sigma, C4859).
(§2) Human ovarian cancer cells from day 7 of the protein protocol were stained for CD274 (eBioscience,12-5983-42) and MHC-I (eBioscience, 12-9983-42).
(§3) All cells were fixed after staining using Foxp3/Transcription Factor Staining Buffer Set (eBioscience, 00-5523-00) and run on a 3-laser, 12-color BD Celesta analyzer.

MOSE ID8 Trp53−/− = assay: qRT-PCR of interferon stimulated genes and cytokines; type: cell-based, mouse; details: Day 7, 500 nM Aza then NextA, fold change relative to Mock
Experimental: (§4) Cells were cultured in T75 dishes to form a monolayer at 80% confluency. Combination cells were treated with 500 nM 5-azacytidine or PBS for 3 days. Cells were passaged on the fourth day and split into 2 flasks to be treated with Nexturastat or vehicle at the desired dose based on the cell line for the following 3 days. On the last day of HDACi treatment, one flask from each treatment group was stimulated with 250 ng/mL IFNγ (Peprotech, 300-02) for 4 hours. For isogeneic ID8 murine cell lines, cell were stimulated with 250 ng/mL […] (Peprotech, 315-05) for 4 hours. On the seventh day cell pellets were collected for qPCR analysis.
Total RNA was extracted using the TRIzol method (Life Technologies). RNA concentration was determined using the Thermo Scientific NanoDrop One machine and software (Thermo Scientific, 840274100PR2). […] All RT-qPCRs were run on the Applied Biosystems Quantstudio3 Real-Time PCR System, 96-well plate reader (Applied Biosystems, A28137) and using TaqMan assay Gene Expression Array (Thermo Fisher Scientific, 4331182) in human for OASL, IFI44L, IFNb1, CXCL10, CCL2, CCL5, IFI27, CD247, DNMT1, DNMT3a, DNMT3b and in mouse (Thermo Fisher Scientific, 4331182) for OASL, IFI44L, IFNb1, CXCL10, CCL2, CCL5, IFI27, and CD247. […]

HDAC activity = assay: HDAC-Glo assay, percent inhibition of HDAC activity in ovarian cancer cell lines; type: cell-based, human
Experimental: HDACi enzymatic function was measured using HDACglo class I/IIa Assay (Promega, G6420). Cells were seeded in a 96-well dish and treated with 500 nM 5-azacytidine and varying levels of HDACi to determine appropriate HDACi dosage. Assay measurements were collected using SpectraMax i3x multi-mode microplate reader (Molecular Devices, USA) at the recommended wavelength. […], Givinostat, and Panobinostat (SelleckChem) were used to compare enzymatic inhibition levels of Nexturastat in each cell line. Results were analyzed according to manufacturer recommendations.

[2] = test system: ID8 Trp53−/− ovarian cancer; assay: ID8 Trp53−/− mouse model of ovarian cancer, survival and tumor burden; details: first experiment; for survival: i.p. Aza 0.5 mg/kg, NextA 25 mg/kg, 5 days a week, combination on alternating weeks, vs Mock
Experimental: For in vivo tumor studies, all mice were given intraperitoneal injections with 5.0 ×10^6 p53−/− isogeneic murine ovarian cancer cells suspended in 500 uL 1x phosphate buffered saline (PBS) (Corning 21-040-CV). Treatment began 1 week after tumor inoculation and ended when the tumor burden was deemed excessive for the animal. Mice were injected with 5-azacytidine and Nexturastat 5 days a week in alternating treatment (see treatment schemas in Figs. 5 and 6). All mice were given intraperitoneal injections of epigenetic drugs or their appropriate controls. Mice in the 5-azacytidine group were given 0.5 mg/kg of 5-azacytidine dissolved in 100 ul of PBS solution daily. Mice in the NexturastatA group were given 25 mg/kg of Nexturastat A dissolved in 100 ul PEG vehicle solution(70% Polyethylene glycol, 10% Tween80, 20% absolute ethanol) daily. Mice in the NextA+Aza group were given 5-azacytidine and NexturastatA on an alternating weekly basis. Mice in the control group were given a drug vehicle comprised of 70% Polyethylene glycol (Sigma 764752), 10% Tween 80 (Sigma P5188), and 20% 200 proof absolute ethanol as per the manufacturer guidelines as a vehicle control for Nexturastat or PBS as a vehicle control for 5-azacytidine.
Tumor burden was assessed via measurement of body weight, amount of ascites drained from the mice at the point where they had gained 20 to 30% of their body weight, or abdominal circumference measurements.

PD-L1 = PD-L1 whole-cell protein immunoblot; type: cell-based, human; details: IGROV-1 CR and SKOV3 CR
Experimental: as §1
(§5) Isolated cell pellets were lysed in RIPA buffer (Pierce, 89900) with 1X protease and phosphatase inhibitor (Pierce, A32961). […] Protein concentration was determined using a Pierce BCA Protein Assay Kit (Thermo Fisher Scientific, 23225) according to the manufacturer’s protocol. […] Bands were detected using Azure Biosystems (Dublin, California, USA) Imaging System c600. […]

[3] = test system: tumor microenvironment immune cells; assay: Immunophenotyping of ascites in ID8 Trp53−/− mouse model; type: in vivo; details: first experiment, Week 7
Experimental: Ascites and murine spleens were collected from 5 to 10 mice per group and incubated in ACK buffer (Thermo Fisher Scientific) to lyse red blood cells for 10 min and then washed. Ascites from each mouse were individually prepared for flow cytometry. The single cells collected were cultured for 4 hours in RPMI with 10% FBS and in the presence of 2 ul/ml Cell Stimulation Cocktail plus protein transport inhibitors (eBioscience, 00497503). Cells were then washed and stained for the T cell panel including: Live/Dead (Thermo Fisher Scientific, L34965), CD45 (Biolegend, 103132), CD3 (Biolegend, 152316), CD4 (Biolegend, 100453), CD8 (Biolegend, 100766), NK1.1 (Biolegend, 108753) CD 279 (Biolegend, 135205). After incubation, the cells were permeabilized (FoxP3 staining buffers; BD Bioscience, 563486). Intracellular staining was performed for FoxP3 (Biolegend, 505806) and IFN-γ (BD Bioscience, 563486).
as §3

[4] = test system: MHC class I, ID8 Trp53−/− mouse ovarian cancer cell line; assay: MHC class I cell surface expression by flow cytometry; type: cell-based; details: Day 7, flow cytometry MFI
Experimental: as §1
Murine ovarian cancer cell lines from day 7 of the protein protocol were stained for PD-L1/CD274 (BD Bioscience, 558091), PD-L2/CD273 (Biolegend, 107214), MHC-I (Invitrogen, 17-5958-82), and MHC-II (Invitrogen 56-5321-82).
as §3

Hey = assay: qRT-PCR of interferon stimulated genes and cytokines; type: cell-based, human; details: Day 7, 500 nM Aza then NextA, fold change relative to Mock
Experimental: as §4
(§6) Total RNA was extracted using the TRIzol method (Life Technologies). RNA concentration was determined using the Thermo Scientific NanoDrop One machine and software (Thermo Scientific, 840274100PR2). One microgram total RNA was DNAse I (Thermo Scientific) treated and used to generate cDNA with the Applied Biosystems High-Capacity cDNA Reverse Transcriptase Kit (Applied Biosystems, 4368814). All RT-qPCRs were run on the Applied Biosystems Quantstudio3 Real-Time PCR System, 96-well plate reader (Applied Biosystems, A28137) and using TaqMan assay Gene Expression Array (Thermo Fisher Scientific, 4331182) in human for OASL, IFI44L, IFNb1, CXCL10, CCL2, CCL5, IFI27, CD247, DNMT1, DNMT3a, DNMT3b and in mouse (Thermo Fisher Scientific, 4331182) for OASL, IFI44L, IFNb1, CXCL10, CCL2, CCL5, IFI27, and CD247. TBP was used as a housekeeping gene for both human and murine cell lines. The ΔΔCt method was used to calculate relative expression levels. Reverse transcriptase negative cDNA synthesis reaction was performed on at least one sample per 96-well plate along with a water control to ensure accurate results.

A2780 = assay: as above; type: cell-based, human; details: A2780, Day 7, 500 nM Aza then NextA, fold change relative to Mock
Experimental: as §4, §6

SKOV3 CR [5] = assay: as above; type: cell-based, human; details: Day 7
Experimental: as §4, §6

Kuramochi = assay: as above; type: cell-based, human; details: Day 7, seven genes
Experimental: as §4, §6

[6] = test system: MHC I, IGROV-1 CR and SKOV3 CR; assay: MHC I surface expression in cisplatin-resistant cell lines; type: cell-based, human; details: flow cytometry
Experimental: as §1, §2, §3

[7] = test system: ovarian cancer cell lines; assay: CellTox Green cytotoxicity assay; type: cell-based, human; details: NextA dose chosen for each cell line, 5–10 uM
Experimental: Drug toxicity levels were measured using the CellTox Assay (Promega, G8741). Cells were seeded into a 96-well dish and treated with 500 nm 5-azacytidine and varying levels of HDACi to determine suitable dosage. Cells were treated with fluorescent dye and incubated for 4 days measuring cell death according to the manufacturer’s protocol. For longer treatments, cells were seeded in a 96-well place and treated with 500 nm 5-azacytidine for 4 days and then varying levels of HDACi. Cells were treated with a fluorescent dye on the fourth day and incubated to measure cell death. Assay measurements were collected using SpectraMax i3x multi-mode microplate reader (Molecular Devices, USA) at the recommended wavelength. For our analysis, TritonX (Sigma, 9002-93-1) was used as the positive control compound to simulate cell death on all […] read days. Results were analyzed according to manufacture recommendations.

[8] = test system: ARID1A mutated ovarian clear cell carcinoma; details: mice with ARID1A mutated ovarian clear cell carcinoma; cited from earlier work
IGROV-1 CR = test system: IGROV-1 CR; parameters: method as in PMID 29662190; details: read-out: cisplatin IC50; cited from earlier work
SKOV3 CR [9] = test system: SKOV3 CR; parameters: method as in PMID 29662190; details: read-out: cisplatin IC50; cited from earlier work
DNMT1 protein = assay: DNMT1 immunoblot in ovarian cancer cell lines; type: cell-based, human; details: Day 7
Experimental: as §1, §5

TykNu = assay: qRT-PCR of interferon stimulated genes and cytokines; type: cell-based, human; details: Day 7, seven genes
Experimental: as §4, §6

[10] = low doses (250–500 nM), positive controls

## CCCCN(Cc1ccc(C(=O)NO)cc1)C(=O)Nc1ccccc1 [NextA, Nexturastat A]
[1]
  MHC class I cell surface expression: upregulated
MOSE ID8 Trp53−/−
  expression of cytokines and interferon genes: significantly increased
HDAC activity; 5 and 10 uM
  inhibition of HDAC activity: 60–80%
[2]
  survival: did not
PD-L1
  total PD-L1 protein: decrease of total PD-L1 protein
[3]
  activated NK cells in ascites: favoring the presence of activated NK cells
[4]
  MHC class I cell surface expression: upregulated
Hey
  expression of cytokines and interferon genes: significantly increased
A2780
  expression of cytokines and interferon genes: significantly increased
SKOV3 CR [5]
  expression of cytokines and interferon genes: upregulated CCL2 and OASL genes
Kuramochi
  expression of cytokines and interferon genes: some upregulation
[6]
  MHC I expression: increase in MHC I expression
[7]
  cell death: no more than 20%

## CC(/C=C/C(=O)NO)=C\[C@@H](C)C(=O)c1ccc(N(C)C)cc1 [TSA]
HDAC activity; [10]
  inhibition of HDAC activity: 100%

## Cc1[nH]c2ccccc2c1CCNCc1ccc(/C=C/C(=O)NO)cc1 [LBH]
HDAC activity; [10]
  inhibition of HDAC activity: 100%

## O=C(CCCCCCNC(=O)c1cnc(N(c2ccccc2)c2ccccc2)nc1)NO [ACY1215]
[8]
  survival: improved survival

## N.N.[Cl][Pt][Cl] [cisplatin]
IGROV-1 CR
  IC50: 1.5 µM
SKOV3 CR [9]
  IC50: 10.4 µM

## Nc1ncn([C@@H]2O[C@H](CO)[C@@H](O)[C@H]2O)c(=O)n1 [Aza, 5-azacytidine]
MOSE ID8 Trp53−/−
  expression of cytokines and interferon genes: significantly increased
[2]; Week 7
  ascites volume (tumor burden): decreased ascites volume
[2]
  survival: significantly increased survival
[3]
  M1 macrophages in ascites: increase in M1 macrophages
DNMT1 protein
  DNMT1 protein expression: degrades the DNMT1 protein
Hey
  expression of cytokines and interferon genes: significantly increased
A2780
  expression of cytokines and interferon genes: significantly increased
TykNu
  expression of cytokines and interferon genes: significant increases
SKOV3 CR [5]
  expression of cytokines and interferon genes: upregulated CCL2 and OASL genes
Kuramochi
  expression of cytokines and interferon genes: some upregulation

## CCN(CC)Cc1ccc2cc(COC(=O)Nc3ccc(C(=O)NO)cc3)ccc2c1 [Givinostat]
HDAC activity; [10]
  inhibition of HDAC activity: 100%
